System: 653999-131-R-J2-PDC complex spheroids, growth inhibition
Test: Anticancer human tumor 653999-131-R-J2-PDC patient-derived lung adenocarcinoma cell line growth inhibition [RAS]
Details: for viability, T/C: stronger effect = lower value; active means viability on the fitted dose curve at most 10% of control; inactive means the rest
Method in brief: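 Multi-cell-type spheroids: tumor cells plus HUVEC endothelial cells and mesenchymal stem cells. RAS-pathway inhibitors were combined with targeted agents, each dosed in half-log steps down from clinical Cmax, or from 10 microM when Cmax was unknown.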

[1] = curve of first compound, second compound 0.000949 µM
[2] = curve of first compound, second compound 0.003 µM
[3] = curve of first compound, second compound 0.00949 µM
[4] = curve of first compound, second compound 0.03 µM
[5] = curve of first compound, second compound 0.0949 µM
[6] = curve of first compound, second compound 0.3 µM
[7] = second compound 0.000949 µM, first compound 0.0316 µM
[8] = second compound 0.000949 µM, first compound 0.1 µM
[9] = second compound 0.000949 µM, first compound 0.316 µM
[10] = second compound 0.000949 µM, first compound 1 µM
[11] = second compound 0.000949 µM, first compound 3.16 µM
[12] = second compound 0.000949 µM, first compound 10 µM
[13] = second compound 0.003 µM, first compound 0.0316 µM
[14] = second compound 0.003 µM, first compound 0.1 µM
[15] = second compound 0.003 µM, first compound 0.316 µM
[16] = second compound 0.003 µM, first compound 1 µM
[17] = second compound 0.003 µM, first compound 3.16 µM
[18] = second compound 0.003 µM, first compound 10 µM
[19] = second compound 0.00949 µM, first compound 0.0316 µM
[20] = second compound 0.00949 µM, first compound 0.1 µM
[21] = second compound 0.00949 µM, first compound 0.316 µM
[22] = second compound 0.00949 µM, first compound 1 µM
[23] = second compound 0.00949 µM, first compound 3.16 µM
[24] = second compound 0.00949 µM, first compound 10 µM
[25] = second compound 0.03 µM, first compound 0.0316 µM
[26] = second compound 0.03 µM, first compound 0.1 µM
[27] = second compound 0.03 µM, first compound 0.316 µM
[28] = second compound 0.03 µM, first compound 1 µM
[29] = second compound 0.03 µM, first compound 3.16 µM
[30] = second compound 0.03 µM, first compound 10 µM
[31] = second compound 0.0949 µM, first compound 0.0316 µM
[32] = second compound 0.0949 µM, first compound 0.1 µM
[33] = second compound 0.0949 µM, first compound 0.316 µM
[34] = second compound 0.0949 µM, first compound 1 µM
[35] = second compound 0.0949 µM, first compound 3.16 µM
[36] = second compound 0.0949 µM, first compound 10 µM
[37] = second compound 0.3 µM, first compound 0.0316 µM
[38] = second compound 0.3 µM, first compound 0.1 µM
[39] = second compound 0.3 µM, first compound 0.316 µM
[40] = second compound 0.3 µM, first compound 1 µM
[41] = second compound 0.3 µM, first compound 3.16 µM
[42] = second compound 0.3 µM, first compound 10 µM
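Further: spheroids exposed to the agents for seven days before the readout.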

CC1(O)CCCC1n1c(=O)c(C(F)F)cc2cnc(NC3CCN(S(C)(=O)=O)CC3)nc21 (centres undefined) + CCn1c(-c2cc(N3CCN(C)CC3)cnc2C(C)OC)c2c3cc(ccc31)-c1csc(n1)CC(NC(=O)C1CC1C)C(=O)N1CCCC(N1)C(=O)OCC(C)(C)C2
0.0579 µM: IC50 [2]
inactive: viability, T/C [7] 67.8% | viability, T/C [8] 48.4% | viability, T/C [9] 57.4% | viability, T/C [10] 49% | viability, T/C [11] 73% | viability, T/C [12] 37.7% | viability, T/C [13] 52.4% | viability, T/C [14] 49.5% | viability, T/C [15] 40.1% | viability, T/C [16] 49.9% | viability, T/C [17] 47.2% | viability, T/C [18] 38.5% | viability, T/C [19] 43% | viability, T/C [20] 28.5% | viability, T/C [21] 28.5% | viability, T/C [22] 28.1% | viability, T/C [23] 39% | viability, T/C [24] 29.1% | viability, T/C [25] 36.6% | viability, T/C [26] 23.9% | viability, T/C [27] 25.8% | viability, T/C [28] 24.9% | viability, T/C [29] 30.7% | viability, T/C [30] 20% | viability, T/C [31] 27.2% | viability, T/C [32] 20.3% | viability, T/C [33] 18.8% | viability, T/C [34] 19.4% | viability, T/C [35] 26.7% | viability, T/C [36] 24.7% | viability, T/C [37] 19.2% | viability, T/C [38] 18.5% | viability, T/C [39] 25.2% | viability, T/C [40] 20.8% | viability, T/C [41] 20.3% | viability, T/C [42] 21%
8.4 µM: IC50 [1]
< 0.0316 µM: IC50 [3] | IC50 [4] | IC50 [5] | IC50 [6]

CCC(CC)c1cc(NC2CCC(N)C2)n2nccc2n1 (centres undefined) + CCn1c(-c2cccnc2C(C)OC)c2c3cc(ccc31)N1CCOC(CC(NC(=O)C(C(C)C)N(C)C(=O)C3(F)CCN(C(=O)C#CC(C)(C)N(C)C)CC3)C(=O)N3CCCC(N3)C(=O)OCC(C)(C)C2)C1
1.91 µM: IC50 [6]
1.84 µM: IC50 [5]
inactive: viability, T/C [7] 101% | viability, T/C [8] 99.6% | viability, T/C [9] 102% | viability, T/C [10] 98.6% | viability, T/C [11] 15% | viability, T/C [12] 22.1% | viability, T/C [13] 111% | viability, T/C [14] 107% | viability, T/C [15] 106% | viability, T/C [16] 95.9% | viability, T/C [17] 17.7% | viability, T/C [18] 18.7% | viability, T/C [19] 102% | viability, T/C [20] 114% | viability, T/C [21] 106% | viability, T/C [22] 93% | viability, T/C [23] 14.4% | viability, T/C [24] 22.5% | viability, T/C [25] 96% | viability, T/C [26] 107% | viability, T/C [27] 114% | viability, T/C [28] 112% | viability, T/C [29] 17% | viability, T/C [30] 19.1% | viability, T/C [31] 97.5% | viability, T/C [32] 115% | viability, T/C [33] 121% | viability, T/C [34] 88.5% | viability, T/C [35] 12% | viability, T/C [36] 20% | viability, T/C [37] 92.1% | viability, T/C [38] 97.6% | viability, T/C [39] 108% | viability, T/C [40] 92.1% | viability, T/C [41] 13.7% | viability, T/C [42] 20.5%
2.09 µM: IC50 [4]
2.01 µM: IC50 [1]
1.98 µM: IC50 [2]
1.94 µM: IC50 [3]

NC1c2ccccc2OC12CCN(c1cnc3c(N4CCCc5ncccc54)n[nH]c3n1)CC2 (centres undefined)
inactive: viability, T/C (compound 0.0316 µM) 73.8% [middle of 4 runs] | viability, T/C (compound 0.316 µM) 75.5% [middle of 4 runs] | viability, T/C (compound 1 µM) 77.6% [middle of 4 runs] | viability, T/C (compound 3.16 µM) 83.9% [middle of 4 runs] | viability, T/C (compound 10 µM) 78.4% [middle of 4 runs]
> 10 µM: IC50 (curve of compound)

CCc1c2c(nc3ccc(O)cc13)-c1cc3c(c(=O)n1C2)COC(=O)[C@]3(O)CC
9.95 nM [middle of 4 runs]: IC50 (curve of compound)
inactive: viability, T/C (compound 0.000949 µM) 85% [middle of 4 runs] | viability, T/C (compound 0.003 µM) 66.5% [middle of 4 runs] | viability, T/C (compound 0.00949 µM) 49.5% [middle of 4 runs] | viability, T/C (compound 0.03 µM) 38.3% [middle of 4 runs] | viability, T/C (compound 0.0949 µM) 26.5% [middle of 4 runs] | viability, T/C (compound 0.3 µM) 13.7% [middle of 4 runs]

CC1(C)CCC(Nc2ncc(C(F)(F)F)c(-c3c[nH]c4c(P(C)(C)=O)c(C#N)ccc34)n2)CN1 (centres undefined) + C=CC(=O)N1CCN(c2nc(OCC3CCCN3C)nc3c(F)c(-c4nc(N)cc(C)c4C(F)(F)F)c(Cl)cc23)C(C)C1
> 0.3 µM: IC50 (curve of first compound, second compound 0.00316 µM) | IC50 (curve of first compound, second compound 0.01 µM) | IC50 (curve of first compound, second compound 0.0316 µM) | IC50 (curve of first compound, second compound 0.1 µM) | IC50 (curve of first compound, second compound 0.316 µM) | IC50 (curve of first compound, second compound 1 µM)
inactive: viability, T/C (second compound 0.00316 µM, first compound 0.000949 µM) 84% | viability, T/C (second compound 0.00316 µM, first compound 0.003 µM) 70.5% | viability, T/C (second compound 0.00316 µM, first compound 0.00949 µM) 73.5% | viability, T/C (second compound 0.00316 µM, first compound 0.03 µM) 60.1% | viability, T/C (second compound 0.00316 µM, first compound 0.0949 µM) 70% | viability, T/C (second compound 0.00316 µM, first compound 0.3 µM) 71.4% | viability, T/C (second compound 0.01 µM, first compound 0.000949 µM) 88.8% | viability, T/C (second compound 0.01 µM, first compound 0.003 µM) 74% | viability, T/C (second compound 0.01 µM, first compound 0.00949 µM) 70.1% | viability, T/C (second compound 0.01 µM, first compound 0.03 µM) 60.9% | viability, T/C (second compound 0.01 µM, first compound 0.0949 µM) 68% | viability, T/C (second compound 0.01 µM, first compound 0.3 µM) 64.6% | viability, T/C (second compound 0.0316 µM, first compound 0.000949 µM) 89.8% | viability, T/C (second compound 0.0316 µM, first compound 0.003 µM) 66.1% | viability, T/C (second compound 0.0316 µM, first compound 0.00949 µM) 59.9% | viability, T/C (second compound 0.0316 µM, first compound 0.03 µM) 64.2% | viability, T/C (second compound 0.0316 µM, first compound 0.0949 µM) 65.2% | viability, T/C (second compound 0.0316 µM, first compound 0.3 µM) 64.5% | viability, T/C (second compound 0.1 µM, first compound 0.000949 µM) 77.5% | viability, T/C (second compound 0.1 µM, first compound 0.003 µM) 68.7% | viability, T/C (second compound 0.1 µM, first compound 0.00949 µM) 61% | viability, T/C (second compound 0.1 µM, first compound 0.03 µM) 58.5% | viability, T/C (second compound 0.1 µM, first compound 0.0949 µM) 60.1% | viability, T/C (second compound 0.1 µM, first compound 0.3 µM) 69.8% | viability, T/C (second compound 0.316 µM, first compound 0.000949 µM) 101% | viability, T/C (second compound 0.316 µM, first compound 0.003 µM) 72.3% | viability, T/C (second compound 0.316 µM, first compound 0.00949 µM) 69.8% | viability, T/C (second compound 0.316 µM, first compound 0.03 µM) 77.1% | viability, T/C (second compound 0.316 µM, first compound 0.0949 µM) 77.5% | viability, T/C (second compound 0.316 µM, first compound 0.3 µM) 69.5% | viability, T/C (second compound 1 µM, first compound 0.000949 µM) 78.9% | viability, T/C (second compound 1 µM, first compound 0.003 µM) 69.9% | viability, T/C (second compound 1 µM, first compound 0.00949 µM) 74% | viability, T/C (second compound 1 µM, first compound 0.03 µM) 64% | viability, T/C (second compound 1 µM, first compound 0.0949 µM) 65.9% | viability, T/C (second compound 1 µM, first compound 0.3 µM) 63.7%

Source: PubChem BioAssay AID2060886 (Molecular Pharmacology Branch, DTP, NCI, 2025)
